The target in assay [1] is T1, Neuropeptide Y receptor type 4 (Homo sapiens, UniProt P50391). The assay is described as follows: Binding affinity to human neuropeptide Y receptor type 4 receptor expressed in CHO cells using Cy5-[K4]-hPP by flow cytometric analysis. It counts as cell-based. (In general: In flow cytometry, cells or beads pass a laser one at a time.)
Assay [2] has as its target T2, Neuropeptide Y receptor type 1 (Homo sapiens, UniProt P25929).
T2 sequence (P25929 whole entry): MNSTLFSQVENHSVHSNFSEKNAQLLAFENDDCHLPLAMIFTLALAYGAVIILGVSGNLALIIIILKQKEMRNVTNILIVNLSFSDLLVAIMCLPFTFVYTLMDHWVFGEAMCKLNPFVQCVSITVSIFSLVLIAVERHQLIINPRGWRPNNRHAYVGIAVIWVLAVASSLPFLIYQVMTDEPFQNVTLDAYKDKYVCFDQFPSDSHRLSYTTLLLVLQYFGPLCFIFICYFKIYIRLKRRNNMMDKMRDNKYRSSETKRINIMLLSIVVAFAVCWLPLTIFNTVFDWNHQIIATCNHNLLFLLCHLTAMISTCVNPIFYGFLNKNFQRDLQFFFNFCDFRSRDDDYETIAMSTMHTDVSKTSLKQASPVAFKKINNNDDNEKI
Description: Displacement of [3H]UR-MK114 from human neuropeptide Y receptor type 1 expressed in human SK-N-MC cells. It counts as cell-based. On the technique in general: In a radioligand displacement assay an active substance lowers the binding of a labelled ligand.

The target of assay [3] is T3, Neuropeptide Y receptor type 2 (Homo sapiens, UniProt P49146).
T3 sequence (P49146 whole entry): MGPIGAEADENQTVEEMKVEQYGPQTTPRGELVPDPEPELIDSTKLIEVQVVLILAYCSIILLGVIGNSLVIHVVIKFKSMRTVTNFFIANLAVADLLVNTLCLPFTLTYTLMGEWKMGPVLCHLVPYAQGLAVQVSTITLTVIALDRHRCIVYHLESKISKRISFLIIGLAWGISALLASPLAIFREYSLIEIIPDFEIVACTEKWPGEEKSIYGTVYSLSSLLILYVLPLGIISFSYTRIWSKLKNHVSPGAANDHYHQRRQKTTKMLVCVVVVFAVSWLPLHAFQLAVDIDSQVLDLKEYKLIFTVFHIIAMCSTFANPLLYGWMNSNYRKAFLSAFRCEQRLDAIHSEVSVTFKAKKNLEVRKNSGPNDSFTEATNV
Description: Binding affinity to human neuropeptide Y receptor type 2 receptor expressed in CHO cells using Cy5-pNPY by flow cytometric analysis. It counts as cell-based.

For assay [4], the target named is T1, Neuropeptide Y receptor type 4. The assay is described as follows: Antagonist activity at human neuropeptide Y receptor type 4 expressed in CHO cells co-expressing Gqi5-mtAEQ assessed as inhibition of hPP-induced calcium mobilization by Aequorin assay. It counts as functional, cell-based.
Assay [5] concerns the target T4, Neuropeptide Y receptor type 5 (Homo sapiens, UniProt Q15761).
T4 sequence (Q15761 whole entry): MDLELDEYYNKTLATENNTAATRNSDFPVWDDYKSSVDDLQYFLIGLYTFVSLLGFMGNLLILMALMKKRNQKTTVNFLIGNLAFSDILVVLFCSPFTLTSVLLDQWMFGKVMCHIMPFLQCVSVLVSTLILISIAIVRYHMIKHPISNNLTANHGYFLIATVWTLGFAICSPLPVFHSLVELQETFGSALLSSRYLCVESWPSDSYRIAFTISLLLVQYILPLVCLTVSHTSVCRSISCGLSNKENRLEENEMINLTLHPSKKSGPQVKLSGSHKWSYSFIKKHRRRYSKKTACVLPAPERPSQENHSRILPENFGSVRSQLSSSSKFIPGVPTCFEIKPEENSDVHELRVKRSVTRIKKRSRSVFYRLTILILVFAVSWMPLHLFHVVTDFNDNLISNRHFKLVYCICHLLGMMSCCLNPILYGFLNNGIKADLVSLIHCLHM
The assay is described as follows: Binding affinity to human neuropeptide Y receptor type 5 receptor expressed in HEC-1B cells using Cy5-pNPY by flow cytometric analysis. It counts as cell-based.

T1 sequence (P50391 whole entry): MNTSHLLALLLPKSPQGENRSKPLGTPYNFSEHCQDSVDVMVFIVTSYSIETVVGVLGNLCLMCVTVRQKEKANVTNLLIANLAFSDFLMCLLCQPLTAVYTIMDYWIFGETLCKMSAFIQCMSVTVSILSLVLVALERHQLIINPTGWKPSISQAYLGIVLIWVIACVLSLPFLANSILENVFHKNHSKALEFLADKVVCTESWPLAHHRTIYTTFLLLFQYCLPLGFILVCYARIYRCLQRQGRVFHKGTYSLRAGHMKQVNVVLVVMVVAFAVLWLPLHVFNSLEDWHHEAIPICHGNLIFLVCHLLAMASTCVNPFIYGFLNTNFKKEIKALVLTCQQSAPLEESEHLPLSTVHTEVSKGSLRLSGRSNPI

For `NCCCCNC(=O)/N=C(/N)NCCC[C@@H](NC(=O)C(c1ccccc1)c1ccccc1)C(=O)NCc1ccc(O)cc1`, the Ki in assay [1] is more than 5 µM.

Consider `NCCNC(=O)CCC(=O)NCCNC(=O)/N=C(\N)NCCC[C@@H](NC(=O)C(c1ccccc1)c1ccccc1)C(=O)NCc1ccc(CNC(N)=O)cc1`, for which the Ki was 0.36 µM in assay [2] and more than 5 µM in assay [1].

As for `NC(=NCCC[C@@H](NC(=O)C(c1ccccc1)c1ccccc1)C(=O)NCc1ccc(O)cc1)NC(=O)CCCCCCC(=O)NC(N)=NCCC[C@@H](NC(=O)C(c1ccccc1)c1ccccc1)C(=O)NCc1ccc(O)cc1`, the Ki in assay [2] came to 0.063 µM; in assay [1], 2 µM.

For `NCCN(CCNC(=O)CCCCC(=O)NCCCCNC(=O)/N=C(/N)NCCC[C@@H](NC(=O)C(c1ccccc1)c1ccccc1)C(=O)NCc1ccc(O)cc1)CCNC(=O)CCCCC(=O)NCCCCNC(=O)/N=C(/N)NCCC[C@@H](NC(=O)C(c1ccccc1)c1ccccc1)C(=O)NCc1ccc(O)cc1`, the Ki in assay [2] was 0.042 µM; in assay [3] it was 1 µM; in assay [1], 0.55 µM; in assay [5], more than 5 µM. Further, in assay [4], the Kb came to 0.032 µM.

For the molecule `NCCOCCOCCNC(=O)CCC(=O)NCCNC(=O)/N=C(\N)NCCC[C@@H](NC(=O)C(c1ccccc1)c1ccccc1)C(=O)NCc1ccc(CNC(N)=O)cc1`, the Ki in assay [2] is 0.077 µM; in assay [1], more than 5 µM.

`NCCC(=O)NCCNC(=O)CCC(=O)NCCNC(=O)/N=C(\N)NCCC[C@H](NC(=O)C(c1ccccc1)c1ccccc1)C(=O)NCc1ccc(CNC(N)=O)cc1`: the Ki in assay [2] is more than 5 µM; in assay [3], more than 5 µM; in assay [1], 3.3 µM; in assay [5], more than 5 µM. The Kb in assay [4] is more than 5 µM.

As to `NCCOCCOCCNC(=O)/N=C(/N)NCCC[C@H](NC(=O)C(c1ccccc1)c1ccccc1)C(=O)NCc1ccc(O)cc1`, the Ki in assay [2], in assay [3] and in assay [5] was more than 5 µM throughout.

For `N=C(N)NCCCC(NC(=O)CC1(CC(=O)N2CCN(C3c4ccccc4NC(=O)c4ccccc43)CC2)CCCC1)C(=O)NCCn1c(=O)n(-c2ccccc2)n(-c2ccccc2)c1=O` (single isomer, unassigned), the Ki in assay [2] was more than 5 µM; in assay [1], more than 7.5 µM; in assay [5], more than 5 µM.

`NCCCCCCNC(=O)/N=C(/N)NCCC[C@H](NC(=O)CC1(CC(=O)N2CCN(C3c4ccccc4NC(=O)c4ccccc43)CC2)CCCC1)C(=O)NCCn1c(=O)n(-c2ccccc2)n(-c2ccccc2)c1=O` (some centres undefined): the figures for the Ki in assay [2] and in assay [3] were more than 5 µM and 0.007 µM, respectively.

`NCCC(=O)NCCNC(=O)CCC(=O)NCCNC(=O)/N=C(\N)NCCC[C@@H](NC(=O)C(c1ccccc1)c1ccccc1)C(=O)NCc1ccc(CNC(N)=O)cc1`: the Ki in assay [2] was 0.086 µM; in assay [1] it was more than 5 µM.

Turning to `NCCN(CCNC(=O)c1ccc(C(=O)NCCCCNC(=O)/N=C(/N)NCCC[C@@H](NC(=O)C(c2ccccc2)c2ccccc2)C(=O)NCc2ccc(O)cc2)cc1)CCNC(=O)c1ccc(C(=O)NCCCCNC(=O)/N=C(/N)NCCC[C@@H](NC(=O)C(c2ccccc2)c2ccccc2)C(=O)NCc2ccc(O)cc2)cc1`, the Ki in assay [2] was 0.053 µM; in assay [3], 0.78 µM; in assay [1] it was 0.21 µM; in assay [5] it was more than 5 µM. In addition, the Kb in assay [4] came out at 0.034 µM.

Turning to `NCCCOCCOCCOCCNC(=O)CCC(=O)NCCNC(=O)/N=C(\N)NCCC[C@@H](NC(=O)C(c1ccccc1)c1ccccc1)C(=O)NCc1ccc(CNC(N)=O)cc1`, the Ki was 0.071 µM in assay [2] and more than 5 µM in assay [1].

In assay [1], `N=C(N)NCCC[C@@H](NC(=O)C(c1ccccc1)c1ccccc1)C(=O)NCc1ccc(CNC(N)=O)cc1` registered a Ki of more than 5 µM. Also, in assay [4], the Kb is more than 5 µM.

Take `N=C(N)NCCOCCOCCNC(=O)/N=C(/N)NCCC[C@@H](NC(=O)C(c1ccccc1)c1ccccc1)C(=O)NCc1ccc(O)cc1`: the inhibition constant (Ki) is 0.13 µM in assay [2], 3.8 µM in assay [1] and more than 5 µM in assay [5].

For the molecule `N=C(N)NCCC[C@@H](NC(=O)C(c1ccccc1)c1ccccc1)C(=O)NCc1ccc(CNC(=O)NCCCCNC(=O)NCCN)cc1`, the Ki in assay [2] was found to be 0.89 µM.

`NCCCCCCNC(=O)/N=C(/N)NCCC[C@@H](NC(=O)C(c1ccccc1)c1ccccc1)C(=O)NCc1ccc(O)cc1` registered a Ki in assay [2] of 0.0099 µM.

For `NCCNC(=O)CCC(=O)NCCNC(=O)CCC(=O)NCCNC(=O)/N=C(\N)NCCC[C@H](NC(=O)C(c1ccccc1)c1ccccc1)C(=O)NCc1ccc(CNC(N)=O)cc1`, the Ki in assay [2], in assay [3], in assay [1] and in assay [5] was more than 5 µM throughout. In assay [4], the Kb was more than 5 µM.

On to `N=C(N)NCCC[C@@H](NC(=O)C(c1ccccc1)c1ccccc1)C(=O)NCc1ccc(O)cc1`, for which, in assay [1], the Ki is more than 5 µM.

Consider `NCCOCCOCCNC(=O)/N=C(/N)NCCC[C@@H](NC(=O)C(c1ccccc1)c1ccccc1)C(=O)NCc1ccc(CNC(N)=O)cc1`, for which, in assay [2], the affinity corresponds to a Ki of 0.031 µM.

Turning to `NCCC(=O)NCCNC(=O)CCC(=O)NCCNC(=O)CCC(=O)NCCNC(=O)/N=C(\N)NCCC[C@@H](NC(=O)C(c1ccccc1)c1ccccc1)C(=O)NCc1ccc(CNC(N)=O)cc1`, the results for the Ki in assay [2] and in assay [1] were 1.2 µM and more than 5 µM, respectively.

In assay [2], `N=C(N)NCCC[C@@H](NC(=O)C(c1ccccc1)c1ccccc1)C(=O)NCc1ccc(CNC(=O)NCCCCNC(=O)CN)cc1` came in with a Ki of 0.014 µM.

`CCC(=O)NCC(=O)NCCCCNC(=O)NCc1ccc(CNC(=O)[C@@H](CCCNC(=N)N)NC(=O)C(c2ccccc2)c2ccccc2)cc1` returned a Ki in assay [2] of 0.073 µM.

On to `N=C(N)NCCC[C@@H](NC(=O)C(c1ccccc1)c1ccccc1)C(=O)NCc1ccc(CNC(=O)NCCCCNC(=O)CNC(=O)CCC(=O)NCCN(CCN)CCNC(=O)CCC(=O)NCC(=O)NCCCCNC(=O)NCc2ccc(CNC(=O)[C@@H](CCCNC(=N)N)NC(=O)C(c3ccccc3)c3ccccc3)cc2)cc1`, for which the Ki was 0.2 µM in assay [2], 2.3 µM in assay [3], 2.2 µM in assay [1] and more than 5 µM in assay [5]. Also, the Kb in assay [4] was 0.9 µM.

For the molecule `NCCCOCCOCCOCCNC(=O)CCC(=O)NCCNC(=O)/N=C(\N)NCCC[C@H](NC(=O)C(c1ccccc1)c1ccccc1)C(=O)NCc1ccc(CNC(N)=O)cc1`, the Ki in assay [2] was more than 5 µM; in assay [3], more than 5 µM; in assay [1] it was 3.7 µM; in assay [5] it was more than 5 µM. The Kb in assay [4] was more than 5 µM.

Molecule `NC(N)=NCCC[C@H](NC(=O)C(c1ccccc1)c1ccccc1)C(=O)NCc1ccc(O)cc1` showed a Ki in assay [1] of more than 5 µM.

With `NCCNC(=O)CCC(=O)NCCNC(=O)CCC(=O)NCCNC(=O)/N=C(\N)NCCC[C@@H](NC(=O)C(c1ccccc1)c1ccccc1)C(=O)NCc1ccc(CNC(N)=O)cc1`, the figures for the Ki in assay [2] and in assay [1] were 1 µM and more than 5 µM, respectively.

Regarding `NCCNC(=O)CCC(=O)NCCNC(=O)/N=C(\N)NCCC[C@H](NC(=O)C(c1ccccc1)c1ccccc1)C(=O)NCc1ccc(CNC(N)=O)cc1`, the Ki in assay [2] was more than 5 µM; in assay [3] it was more than 5 µM; in assay [1] it was 4.1 µM. For the same molecule, the Kb in assay [4] is more than 5 µM.

As for `N=C(N)NCCC[C@@H](NC(=O)C(c1ccccc1)c1ccccc1)C(=O)NCc1ccc(CNC(=O)NCCCCN)cc1`, the Ki is 0.041 µM in assay [2] and more than 5 µM in assay [1]. The Kb in assay [4] was more than 5 µM.

Regarding `NCCOCCOCCNC(=O)/N=C(/N)NCCC[C@@H](NC(=O)C(c1ccccc1)c1ccccc1)C(=O)NCc1ccc(O)cc1`, the Ki in assay [2] is 0.0073 µM; in assay [3] it was more than 5 µM; in assay [1] it was more than 5 µM; in assay [5], more than 5 µM.

Regarding `NCCCCCCNC(=O)/N=C(/N)NCCC[C@@H](NC(=O)C(c1ccccc1)c1ccccc1)C(=O)NCc1ccc(CNC(N)=O)cc1`, the Ki was 0.2 µM in assay [2] and more than 5 µM in assay [1]. The Kb in assay [4] is more than 5 µM.

As usually defined, the Ki is a dissociation constant, usually derived from enzyme kinetics or from competition with a known ligand. Low values mean tighter binding, high ones weaker binding. Usually Kb stands for the equilibrium dissociation constant of an antagonist, usually derived from a functional assay.

The record behind these values is ChEMBL document CHEMBL2439953, “Dimeric argininamide-type neuropeptide Y receptor antagonists: chiral discrimination between Y1 and Y4 receptors” (Bioorg Med Chem, 2013).
